Here are results for one molecule from BindingDB's records for doi:10.1016/S0960-894X(00)80679-4 (1993).

This assay addresses Gastrin/cholecystokinin type B receptor (Cavia porcellus). The experiment in a line: In vitro binding affinity against Cholecystokinin type B receptor in guinea pig brain membranes.

By IC50 is commonly meant the concentration that gives 50% inhibition. Read a high IC50 as lower potency. `CCCC[C@H](NC(=O)[C@H](Cc1ccc(OS(=O)(=O)O)cc1)NC(=O)OC(C)(C)C)C(=O)NCC(=O)N[C@H](Cc1c[nH]c2ccccc12)C(=O)N[C@@H](CCCC)C(=O)N[C@@H](CC(=O)O)C(=O)NCCc1ccccc1` [(S)-3-{(S)-2-[(R)-2-(2-{(S)-2-[(S)-2-tert-Butoxycarbonylamino-3-(4-sulfooxy-phenyl)-propionylamino]-hexanoylamino}-acetylamino)-3-(1H-indol-3-yl)-propionylamino]-hexanoylamino}-N-phenethyl-succinamic acid] returned an IC50 of 1000 nM.
